Source: US20200197461A1, “NOVEL CANNABIS SATIVA LINES AND EXTRACTS WITH ANTI-CANCER PROPERTIES” (Pathway RX Inc., priority 2018, published 2020)
Several values for one entry are separate records, joined by “and”; a condition that tells them apart may be missing. Equal entries are not always repeated.

Tested on: HCC1806 breast cancer cells
Experiment: MTT proliferation assay on HCC1806 cells
Type: cell-based, human
Experimental: HCC 1806—Primary Acantholytic Squamous Cell Carcinoma
(Colorimetric assays using the tetrazolium salt thiazolyl blue, also termed MTT, after methyl-thiazolyl-tetrazolium)
Around 1500 cells are in placed in each well in 96 well plates, 10 extracts (tested 2 concentrations each, 0.007 mg/ml and 0.015 μg/μl) were added to separate wells. Untreated cells and DMSO-treated cells were used as controls in separate wells. Experiments were performed in triplicate. A total number of 9×10^4 cells are required at each concentration. The well plates were purchased from Sigma Aldrich.
Mix cells and medium nicely, add 150 μl per well, plate eight 96-well plates for each experiment.
Place 96-well plates in a 37° C. incubator with 5% CO2. After 24 hours, the medium was changed to the medium containing extracts.
The MTT assay was performed from Day 0 to Day 7 by adding 15 μl MTT labeling reagent into each well and incubated at 37° C. for 4 hours. Thereafter, 150 μl solubilization solution was added into each well and incubated overnight in the 37° C. incubator with 5% CO2.
3-(4,5-Dimethylthiazol-2-yl)-2,5-diphenyltetrazolium bromide assays were performed using the Cell Proliferation Kit I (Roche Diagnostics GmbH) as the manufacturer's instructions. The absorbance of the samples was measured at 595 nm using a microtiter plate reader (FLUOstar Omega, BMG LABTECH). The experiments were done in triplicate.

| Structure (SMILES) | effective (active) concentration on HCC1806 cancer cells (pure cannabinoid) | effective concentration on HCC1806 cancer cells, converted (pure cannabinoid, conversion of 15 μM) | effectiveness of pure cannabinoid on HCC1806 cancer cells (20 μM (0.0063 μg/μl)) |
| --- | --- | --- | --- |
| C=C(C)[C@@H]1CCC(C)=C[C@H]1c1c(O)cc(CCCCC)cc1O [CBD, cannabidiol] | 15 to 20 µM and 15 µM | 0.0047 µg/µL | – |
| CCCCCc1cc(O)c2c(c1)OC(C)(C)[C@@H]1CCC(C)=C[C@@H]21 [THC, tetrahydrocannabinol] | – | – | only marginally and insignificantly effective |
